In patent publication US9493401B2, “Glutamate derivatives for topical use as immunomodulatory active ingredient” (PIERRE FABRE DERMO-COSMETIQUE, priority 2012, dated 2016):
Where two headings read alike, the source gives them in different places.

Columns and labels:
human CD4+ lymphocytes = test: Secretion of cytokines by human CD4+ lymphocytes stimulated with SEB (immuno-regulatory activity); assay type: cell-based; details: Lymphocyte, SEB 300 ng/ml, 24 h
HaCaT keratinocytes = test: Secretion of IL8 by HaCaT keratinocytes stimulated with TNFα (anti-inflammatory activity); assay type: cell-based, human; details: TNFα 10 ng/ml, 24 h; FIG. 4; in words
Experimental: The dosage of interleukin 8 is carried out from a sample taken from the supernatant according to the following method: • IL8 is evaluated by ELISA, Duoset IL8 (Ref. DY208E, R&D Systems).

NHEK keratinocytes = test: Gene expression of inflammatory markers of atopic dermatitis in stimulated NHEK keratinocytes (PCR-Array); assay type: cell-based, human; details: 24 h, vs stimulated control
Experimental: The primary keratinocytes (NHEK, normal human epidermal keratinocytes) distributed in 24-well plates are preincubated for 1 hour with the active ingredients and then stimulated for 24 hours with a cocktail of 4 agonists giving the possibility of creating in vitro the physio-pathological environment of atopic dermatitis: 100 ng/ml IL4+100 ng/ml IL13+1 μg/ml Poly I:C+5 μg/ml Pam3CSK4: this model gives the possibility of inducing the inflammation mediated by the overexpressed Th2 cytokines in DA (IL4, IL13) and by the bacterial components (mimicked by Pam3CSK4, TLR-2 ligand) and viral components (mimicked by Poly I:C, TLR-3 ligand) of DA. Analysis of the gene expression of the markers of DA is conducted in a PCR-Array with 48 genes and repeated on 3 different donors of NHEK.
For the whole of the markers, the RQ (Relative Quantity) of less than 0.5, at 5 h or 24 h, indicates significant inhibition: • inhibition of the TSLP marker involved in the lymphocyte Th2 polarization and specific of AD; • inhibition of the inflammatory cytokines IL1A, IL8, CSF2, IFNB1, VEGF; • inhibition of the chemokines CCL, CXCL, involved in the recruitment, cutaneous infiltration, and activation of the inflammatory cells (leucocytes, lymphocytes, Th1 and Th2 lymphocytes, monocytes).

[1] = read-out: inhibition of the production of IL-2
[2] = read-out: inhibition of the production of IL-4
[3] = read-out: inhibition of the production of IL-17

Compound: CCCCCCCCCOC(=O)CC[C@H](N)C(=O)O [Example 3, 5-(n-nonyl)-L-glutamate or 2-amino-5-(nonyloxy)-5-oxopentanoic acid]
- inhibition at 300 µM (human CD4+ lymphocytes; [1]): 63%
- inhibition at 300 µM (human CD4+ lymphocytes; [2]): 70%
- inhibition at 300 µM (human CD4+ lymphocytes; [3]): 54%
- anti-inflammatory activity towards the production of IL-8 (HaCaT keratinocytes): anti-inflammatory activity

Compound: CCCCCCCCCCCCOC(=O)CC[C@H](N)C(=O)O [Example 4, 5-(n-dodecyl)-L-glutamate or 2-amino-5-(dodecyloxy)-5-oxopentanoic acid]
- melting point: 189.9 °C

Compound: CCCCCCCCCCCCCCOC(=O)CC[C@H](N)C(=O)O [Example 5, 5-(n-tetradecyl)-L-glutamate or 2-amino-5-oxo-5(tetradecyl)pentanoic acid]
- melting point: 184.8 °C

Compound: CCCCCCCCCCCCCCCCOC(=O)CC[C@H](N)C(=O)O [Example 6, 5-(n-hexadecyl)-L-glutamate or 2-amino-5-(hexadecyloxy)-5-oxopentanoic acid]
- melting point: 179.3 °C

Compound: CCCCCCCCCCCCCCCCCCOC(=O)CC[C@H](N)C(=O)O [Example 7, 5-(n-octadecyl)-L-glutamate or 2-amino-5-(octadecyloxy)-5-oxopentanoic acid]
- melting point: 180.5 °C

Compound: CC(C)CCCC(C)CCOC(=O)CC[C@H](N)C(=O)O (stereo partly drawn) [Example 8, 5-(3,7-dimethyloctyl)-L-glutamate or 2-amino-5(3,7-dimethyloctyloxy)-5-oxo-pentanoic acid]
- inhibition at 300 µM (human CD4+ lymphocytes; [1]): 29%
- melting point: 150.8 °C

Compound: CCCCC(CC)COC(=O)CC[C@H](N)C(=O)O (stereo partly drawn) [Example 12, 5-(2-ethylhexyl)-L-glutamate or 2-amino-5(2-ethylhexyloxy)-5-oxopentanoic acid]
- inhibition at 300 µM (human CD4+ lymphocytes; read-out: inhibition of the production of IFNγ): 77%
- inhibition at 300 µM (human CD4+ lymphocytes; read-out: inhibition of the production of IL1β): 80%
- inhibition at 300 µM (human CD4+ lymphocytes; read-out: inhibition of the production of IL5): 77%
- inhibition at 300 µM (human CD4+ lymphocytes; read-out: inhibition of the production of IL6): 44%
- inhibition at 300 µM (human CD4+ lymphocytes; read-out: inhibition of the production of IL10): 87%
- inhibition at 300 µM (human CD4+ lymphocytes; read-out: inhibition of the production of IL13): 84%
- inhibition at 300 µM (human CD4+ lymphocytes; [1]): 43%
- inhibition at 300 µM (human CD4+ lymphocytes; [2]): 69%
- inhibition at 300 µM (human CD4+ lymphocytes; [3]): 86%
- inhibition at 300 µM (human CD4+ lymphocytes; read-out: inhibition of the production of TNFα): 18%
- CCL2 (MCP-1) gene expression (NHEK keratinocytes; 100 μM): 0.48 RQ
- CCL3 (MIP-1α) gene expression (NHEK keratinocytes; 100 μM): 0.51 RQ
- CCL4 (MIP-1β) gene expression (NHEK keratinocytes; 100 μM): 0.14 RQ
- CCL5 (RANTES) gene expression (NHEK keratinocytes; 100 μM): 0.42 RQ
- CCL20 (MIP-3α) gene expression (NHEK keratinocytes; 100 μM): 0.13 RQ
- CSF2 (GMCSF) gene expression (NHEK keratinocytes; 100 μM): 1.55 RQ
- CXCL1 (GRO-α) gene expression (NHEK keratinocytes; 100 μM): 0.33 RQ
- CXCL2 (MIP-2α) gene expression (NHEK keratinocytes; 100 μM): 0.06 RQ
- CXCL9 (Gamma-interferon-induced monokine) gene expression (NHEK keratinocytes; 100 μM): 0.20 RQ
- CXCL10 (IP-10) gene expression (NHEK keratinocytes; 100 μM): 0.18 RQ
- CXCL11 (I-TAC) gene expression (NHEK keratinocytes; 100 μM): 0.14 RQ
- IFNB1 (Interferon beta 1) gene expression (NHEK keratinocytes; 100 μM): 0.19 RQ
- IL1A (Interleukin 1, alpha) gene expression (NHEK keratinocytes; 100 μM): 0.53 RQ
- IL8 (Interleukin 8) gene expression (NHEK keratinocytes; 100 μM): 0.29 RQ
- TSLP (Thymic stromal lymphopoietin) gene expression (NHEK keratinocytes; 100 μM): 0.20 RQ
- VEGFC (Vascular endothelial growth factor C) gene expression (NHEK keratinocytes; 100 μM): 0.20 RQ
- CCL3 (MIP-1α) gene expression (NHEK keratinocytes; 300 μM): 0.06 RQ
- CCL4 (MIP-1β) gene expression (NHEK keratinocytes; 300 μM): 0.02 RQ
- CCL5 (RANTES) gene expression (NHEK keratinocytes; 300 μM): 0.20 RQ
- CCL20 (MIP-3α) gene expression (NHEK keratinocytes; 300 μM): 0.13 RQ
- CSF2 (GMCSF) gene expression (NHEK keratinocytes; 300 μM): 0.33 RQ
- CXCL1 (GRO-α) gene expression (NHEK keratinocytes; 300 μM): 0.36 RQ
- CXCL2 (MIP-2α) gene expression (NHEK keratinocytes; 300 μM): 0.32 RQ
- CXCL9 (Gamma-interferon-induced monokine) gene expression (NHEK keratinocytes; 300 μM): 0.29 RQ
- CXCL10 (IP-10) gene expression (NHEK keratinocytes; 300 μM): 0.06 RQ
- CXCL11 (I-TAC) gene expression (NHEK keratinocytes; 300 μM): 0.15 RQ
- IFNB1 (Interferon beta 1) gene expression (NHEK keratinocytes; 300 μM): 0.26 RQ
- IL1A (Interleukin 1, alpha) gene expression (NHEK keratinocytes; 300 μM): 0.53 RQ
- IL8 (Interleukin 8) gene expression (NHEK keratinocytes; 300 μM): 0.18 RQ
- TSLP (Thymic stromal lymphopoietin) gene expression (NHEK keratinocytes; 300 μM): 0.54 RQ
- VEGFC (Vascular endothelial growth factor C) gene expression (NHEK keratinocytes; 300 μM): 0.50 RQ
- melting point: 157.9 °C

Compound: N[C@@H](CCC(=O)O)C(=O)O [glutamic acid, reference compound]
- anti-inflammatory activity towards the production of IL-8 (HaCaT keratinocytes): not again found
